Test results as given in ChEMBL document CHEMBL4725453, “Modulation of Androgen Receptor for Therapeutic Application in Cancer and Viral Infection” (ACS Med Chem Lett, 2020).

Target: T1, Androgen receptor (Homo sapiens, UniProt P10275)
T1 sequence (P10275 whole entry): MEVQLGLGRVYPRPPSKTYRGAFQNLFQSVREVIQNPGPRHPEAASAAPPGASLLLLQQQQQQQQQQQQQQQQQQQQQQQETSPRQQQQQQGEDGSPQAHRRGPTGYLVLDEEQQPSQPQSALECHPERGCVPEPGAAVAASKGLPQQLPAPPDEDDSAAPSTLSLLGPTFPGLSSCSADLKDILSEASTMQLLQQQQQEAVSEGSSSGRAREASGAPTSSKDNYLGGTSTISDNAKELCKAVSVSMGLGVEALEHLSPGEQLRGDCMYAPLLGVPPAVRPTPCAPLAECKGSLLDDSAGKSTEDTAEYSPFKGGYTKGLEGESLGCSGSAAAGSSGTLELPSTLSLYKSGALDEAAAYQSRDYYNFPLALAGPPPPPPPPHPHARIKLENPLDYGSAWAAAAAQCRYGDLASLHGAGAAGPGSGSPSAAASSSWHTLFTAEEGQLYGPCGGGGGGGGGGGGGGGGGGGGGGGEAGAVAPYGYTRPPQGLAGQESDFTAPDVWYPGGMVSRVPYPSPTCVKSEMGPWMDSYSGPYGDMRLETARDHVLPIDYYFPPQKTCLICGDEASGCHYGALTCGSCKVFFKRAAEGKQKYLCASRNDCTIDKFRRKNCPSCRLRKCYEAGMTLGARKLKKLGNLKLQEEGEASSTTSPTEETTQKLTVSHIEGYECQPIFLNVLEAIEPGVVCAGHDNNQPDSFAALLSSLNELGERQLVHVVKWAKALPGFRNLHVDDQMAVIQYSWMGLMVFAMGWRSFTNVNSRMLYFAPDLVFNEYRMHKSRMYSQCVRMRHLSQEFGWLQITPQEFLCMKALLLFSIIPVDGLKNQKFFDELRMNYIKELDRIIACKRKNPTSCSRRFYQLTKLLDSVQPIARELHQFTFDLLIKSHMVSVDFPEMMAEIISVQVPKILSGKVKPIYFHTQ
Test: Modulation of AR in human LNCAP cells transfected with PSA reporter gene assessed as inhibition of R1881-induced PSA luciferase activity pretreated for 1 hr followed by R1881 addition and measured after 24 hrs by luciferase assay
Type: cell-based

Row | SMILES | IC50 [µM]
1 | CC(C)(c1ccc(OCc2ccnc(NS(C)(=O)=O)n2)cc1)c1cc(F)c(OCCCl)c(Cl)c1 | 0.5
2 | CC(C)(c1ccc(OCc2cnc(NS(C)(=O)=O)o2)cc1)c1cc(Cl)c(OCCCl)c(C#N)c1 | < 0.5
3 | CC(C)(c1ccc(OCc2ncc(NS(C)(=O)=O)s2)cc1)c1cc(Cl)c(OCCCl)c(C#N)c1 | < 0.5
4 | CSc1nc(C)c(COc2ccc(C(C)(C)c3cc(Cl)c(OCCCl)c(C#N)c3)cc2)o1 | < 0.5
5 | CC(C)(c1ccc(OCc2nc(NS(C)(=O)=O)cs2)cc1)c1cc(Cl)c(OCCCl)c(C#N)c1 | < 0.5
6 | Cc1nc(NS(C)(=O)=O)nc(COc2ccc(C(C)(C)c3cc(Cl)c(OCCCl)c(C#N)c3)cc2)c1C | < 0.5
7 | CC(C)S(=O)(=O)c1nc(COc2ccc(C(C)(C)c3cc(Cl)c(OCCCl)c(C#N)c3)cc2)co1 | < 0.5
8 | CC(C)(c1ccc(OCc2ccnc(NS(C)(=O)=O)n2)cc1)c1cc(Cl)c(OCCCl)c(Cl)c1 | < 0.5
9 | Cc1cnc(NS(C)(=O)=O)nc1COc1ccc(C(C)(C)c2cc(Cl)c(OCCCl)c(C#N)c2)cc1 | < 0.5
10 | CC(C)S(=O)(=O)Nc1nc(COc2ccc(C(C)(C)c3cc(Cl)c(OCCCl)c(C#N)c3)cc2)co1 | 0.5
11 | CC(C)(c1ccc(OCc2cnc(Cl)o2)cc1)c1cc(Cl)c(OCCCl)c(C#N)c1 | < 0.5
12 | CC(C)(c1ccc(OCc2cnc(NS(C)(=O)=O)nc2)cc1)c1cc(Cl)c(OCCCl)c(C#N)c1 | < 0.5
